Data as given in patent publication US20180110796A1, “COMPOSITIONS AND METHODS FOR THE TREATMENT OF HBV INFECTION” (Spring Bank Pharmaceuticals, Inc., priority 2015, published 2018).

How the values were obtained:
Format in all cases: in vivo, woodchuck (Marmota monax)
[1] = test system: woodchuck hepatitis virus (WHV); assay: Formula (IIa) in combination with entecavir, sequential oral treatment of chronic WHV carrier woodchucks (Example 3)
Description: Ten (10) woodchucks chronically infected with WHV were used. Woodchucks were born in captivity and were inoculated at 3 days of age with cWHV7P2a inoculum, then reared until 11 months of age. Prior to the study, woodchucks were confirmed as established chronic carriers of WHV based on established criteria including the presence of WHV surface antigen (WHsAg), antibody against […], and WHV DNA. Woodchucks used in the study were of both gender and approximately between 12 and 14 months of age at the start of the study.
Two (2) groups of five (5) chronic WHV carrier woodchucks each were used in the study:
Group 1 was orally treated for 4 weeks with ETV at a daily dose of 0.5 mg/kg starting at T0, followed by add-on treatment with Formula (IIa) for 12 weeks at a daily dose of 30 mg/kg. Woodchucks were then followed for a total of 24 weeks.
Group 2 was orally treated for 12 weeks with Formula (IIa) at a daily dose of 30 mg/kg starting at T0, followed by add-on treatment with ETV for 4 weeks at a daily dose of 0.5 mg/kg. Woodchucks were then also followed for a total of 24 weeks.
Formula (IIa) was supplied as a pre-weighed powder in individual containers. An amount of powder sufficient to treat all 10 pre-weighed woodchucks per day with Formula (IIa) was mixed directly with woodchuck diet powder (Dyets Inc., Bethlehem, Pa.) and then suspended with HPLC water. The drug was orally administered with a dose syringe at T0 (Group 2) or after 4 weeks of treatment with ETV (Group 1), and thereafter every day for 12 weeks (84 days). Drug dosing was then followed by an extra 2 ml of woodchuck liquid diet to ensure complete consumption of Formula (IIa).
ETV was provided as powder. An amount of powder sufficient to treat all 10 woodchucks per day was suspended in isotonic saline at a concentration of 0.5 mg/ml. A volume (ml) of drug solution equivalent to the body weight (kg) of an individual woodchuck was then mixed with approximately 3-5 ml of woodchuck liquid diet and administered orally with a dose syringe at T0 (Group 1) or after 12 weeks of treatment with Formula (IIa) (Group 2), and thereafter every day for 4 weeks (28 days). ETV dosing was followed by an extra 2 ml of woodchuck liquid diet to ensure complete consumption of drug.
Prior to administration of Formula (IIa) or ETV at T0, then weekly until the end of the study at week 24, whole blood samples were drawn from each woodchuck under ketamine/xylazine anesthesia for determinations of serum WHV DNA, WHsAg, and anti-WHs (see Summary Table below). […] Blood samples were kept at room temperature following collection and serum harvested upon observation of clot retraction. Harvested serum was transferred to microcentrifuge tubes and stored frozen at −70° C. until use.
The induction of an innate immune response in peripheral blood and liver of woodchucks by combination treatment with Formula (IIa) and ETV were determined via real time PCR-based assays. Whole blood samples were obtained prior to the start of treatment with Formula (IIa) at T0, and then at weeks 4, 10, 16, 20, and 24 (Group 1) or at weeks 6, 12, 16, 20, and 24 (Group 2) (see Summary Table below). Whole blood was drawn into PAXgene blood tubes at the indicated time points and stored at −70° C. until use. Total RNA was isolated from whole blood and treated with DNase using the PAXgene Blood miRNA Kit (Quiagen). This was followed by reverse transcription of mRNA into cDNA and amplification of host immune response genes by real time PCR. Woodchuck cytokine and interferon-stimulated genes included IFN-α, IFN-β, interleukin 6 (IL-6), 2′-5′-oligoadenylate synthetase 1 (OAS-1), interferon-induced 17 kDa protein (ISG15), and interferon gamma-induced protein 10 (IP-10or CXCL10). Woodchuck 18S rRNA expression was used to normalize target gene expression. […]

[2] = test system: woodchuck hepatitis virus (WHV); assay: Antiviral efficacy of oral Formula (IIa) in chronic WHV carrier woodchucks (Example 2); conditions: for weeks per approximately 1 log10 decline of serum WHV DNA: 12-week treatment; for average reduction of serum WHV DNA at the end of treatment: week 12, vs T0; for maximum reduction of hepatic WHV DNA RI from pretreatment level / maximum reduction of hepatic WHV RNA from pretreatment level / maximum reduction of hepatic WHV cccDNA from pretreatment level: after 12 weeks; for maximum reduction of serum WHsAg: after 12 weeks of treatment
[3] = Tolerability / drug safety of oral Formula (IIa) in chronic WHV carrier woodchucks (Example 2)
Description: All woodchucks used in this study were born in captivity and infected at 3 days of age with the cWHV7P2a inoculum containing WHV strain 7-11 (WHV7). cWHV7P2a has the same biological and virological characteristics as the parent cWHV7P2 inoculum as both were derived from cWHV7P1. Chronically infected animals were confirmed positive for serum WHV DNA and WHV surface antigen (WHsAg) and had undetectable antibodies against WHsAg (anti-WHs) at approximately 1 year post-infection. Absence of liver tumors in woodchucks with low gamma-glutamyl transferase (GGT) was confirmed by ultrasonography. Chronic WHV carrier woodchucks were assigned and stratified by gender, body weight, and by pretreatment serum markers (WHV DNA and WHsAg loads and serum GGT and sorbitol-dehydrogenase (SDH) levels) into two groups (n=5 each). Woodchucks were treated daily, orally with either a low (15 mg/kg) or high dose (30 mg/kg) of Formula (IIa) for 12 weeks. For select assays, blood and liver samples from five age-matched chronic WHV carrier woodchucks were included for comparison of basal expression levels of immune response genes in untreated animals with pretreated levels in Formula (IIa) treated animals.
Various measurements (body weight, body temperature, clinical chemistry, and hematology) were obtained weekly to monthly throughout the study to monitor drug safety. Serum and hepatic WHV parameters, host immune response parameters, and drug safety parameters were compared to the values at pretreatment and between both dose groups using unpaired Student's t-test with equal variance. P values of <0.05 were considered statistically significant.

[4] = Plasma levels by LC-MS after oral Formula (IIa) (Example 2); conditions: 15 and 30 mg/kg oral, approximately 2 hours post-dose
Experimental: Plasma levels of Formula (Ia) were evaluated at pretreatment (T0) and then bi-weekly throughout the study at approximately 2 hours post-dose. Woodchuck plasma was analyzed by LC-MS and quantified using isotopically enriched internal standards.

[5] = 30 mg/kg daily oral, week 12, Group 2 before add-on ETV
[6] = 15 and 30 mg/kg, all treated woodchucks
[7] = 15 and 30 mg/kg daily oral, 12 weeks

In the case of `COC1[C@@H](OP(=O)(OC[C@H]2O[C@@H](n3cnc4c(N)ncnc43)C[C@H]2O)SCOC(=O)OC(C)C)[C@@H](CO)O[C@H]1n1ccc(=O)[nH]c1=O` (some centres unmarked) [Formula (IIa)], the “decline of serum WHsAg until the end of Formula (IIa) treatment” value [1, 5] is reported as 1.49 log 10, the “reduction of mean serum WHV DNA from pretreatment level at the end of Formula (IIa) treatment” value [1, 5] is reported as 3.54 log 10 and the “weeks per approximately 1 log10 decline of serum WHV DNA” value (“weeks per approximately 1 log10 decline” below) ([1]; Formula (IIa) 30 mg/kg, initial 6 weeks of treatment, Group 2) is reported as roughly 3 weeks. For the same molecule, the “seroconversion to anti-WHs antibodies and anti-WHe antibodies” value ([2]; 15 and 30 mg/kg, 12 weeks) was “not observed”, the “hepatic expression scores of cytoplasmic WHcAg from pretreatment level” value [2, 6] was “dose-dependent, transient reductions” and the “scores of liver inflammation during the 12-week treatment period” value [2, 6] was “unchanged or even reduced”. The “delay in WHsAg rebound, high dose versus low dose” value ([2]; high dose 30 mg/kg) was 1-7 week, the “delay in relapse of serum WHV DNA, high dose versus low dose” value ([2]; high dose 30 mg/kg) was 2-4 weeks and the “time for serum WHV DNA to return to pretreatment level after withdrawal” value ([2]; high dose 30 mg/kg) was 5-7 weeks. The “time for serum WHsAg to return to pretreatment level after the end of treatment” value ([2]; high dose 30 mg/kg) was 6-8 weeks, the “weeks per approximately 1 log10 decline” value ([2]; high dose 30 mg/kg daily oral) was roughly 3 weeks and the “average reduction of serum WHV DNA at the end of treatment” value ([2]; high dose 30 mg/kg daily oral) was 3.7 log10. The “maximum reduction of hepatic WHV DNA RI from pretreatment level” value ([2]; high dose 30 mg/kg) was 38%, the “maximum reduction of hepatic WHV RNA from pretreatment level” value ([2]; high dose 30 mg/kg) was 45% and the “maximum reduction of hepatic WHV cccDNA from pretreatment level” value ([2]; high dose 30 mg/kg) was 25%. The “maximum reduction of serum WHsAg” value ([2]; high dose 30 mg/kg) was 1.6 log10, the “time for serum WHV DNA to return to pretreatment level after withdrawal” value ([2]; low dose 15 mg/kg) was 3-5 weeks and the “time for serum WHsAg to return to pretreatment level after completion of treatment” value ([2]; low dose 15 mg/kg) was 1-5 weeks. For the same molecule, the “weeks per approximately 1 log10 decline” value ([2]; low dose 15 mg/kg daily oral) was roughly 6 weeks, the “average reduction of serum WHV DNA at the end of treatment” value ([2]; low dose 15 mg/kg daily oral) was 2.2 log10 and the “maximum reduction of hepatic WHV DNA RI from pretreatment level” value ([2]; low dose 15 mg/kg) was 19%. The “maximum reduction of hepatic WHV RNA from pretreatment level” value ([2]; low dose 15 mg/kg) was 22%, the “maximum reduction of hepatic WHV cccDNA from pretreatment level” value ([2]; low dose 15 mg/kg) was 16% and the “maximum reduction of serum WHsAg” value ([2]; low dose 15 mg/kg) was 0.5 log10. The “mortality during the study” value [3, 7] was “no mortality”, the “tolerability (gross observations, body weights, body temperatures, hematology, clinical chemistry)” value [3, 7] was “well-tolerated” and the “serum levels of ALT and AST during and following treatment” value ([3]; both dose groups) was “essentially remained unchanged or declined slightly”. For the same molecule, the “serum SDH levels during administration” value ([3]; especially initial 4-8 weeks, more pronounced in the high dose group) was “trend towards elevated” and the “plasma exposure following oral administration” value [4] was “dose-dependent”.
